Measurements from patent publication US20070020306A1, “Endovascular implant with an at least sectional active coating made of radjadone and/or a ratjadone derivative” (priority 2003, published 2007).

Test system: aortal, smooth vascular muscle cells
Assay: inhibition of the growth of aortal, smooth vascular muscle cells
Format: cell-based, human
Settings: pharmacologically active even in the smallest concentrations of active substance
Method: This effect already occurs starting at 1 to 100 nM, preferably 5 to 50 nM, so that already extremely low local concentrations are sufficient for an effective inhibition of restenosis in the region of an implant. This virtually precludes broader side-effects.

## C/C=C/[C@@H]1O[C@H]([C@H](O)/C=C/C=C(\C)C[C@@H](C)/C=C(C)\C=C\[C@H]2CC=CC(=O)O2)C[C@@H](O)[C@@H]1C [Ratjadone]
  potency in first experiments: particularly potent
